Test results from patent US6734301B2, “2,3,4,5-Tetrahydro-1H-[1,4]diazepino[1,7-a]indole compounds” (Pharmacia & Upjohn Company, priority 2000, dated 2004).
Structures can show the parent of a compound that is named as a salt.

SMILES	melting point
O=[N+]([O-])/C=C/c1c2n(c3ccccc13)CCNCC2 [Example 52, 11-[(E)-2-nitroethenyl]-2,3,4,5-tetrahydro-1H-[1,4]diazepino[1,7-a]indole]	225 to 226 °C
CCN1CCc2cc3ccccc3n2CC1	44 to 46 °C
CCCN1CCc2cc3ccccc3n2CC1 (as salt: hydrochloride)	257 to 259 °C
NCCc1c2n(c3ccccc13)CCNCC2	77 to 80 °C
O=Cc1c2n(c3ccccc13)CCNCC2	167 to 168 °C
O=Cc1c2n(c3cc(Br)ccc13)CCNCC2	186 to 188 °C
COc1ccc(NC(=O)C(=O)c2c3n(c4ccccc24)CCNCC3)cc1Cl	221 to 223 °C
N#Cc1c2n(c3ccccc13)CCNCC2	161 to 164 °C
Brc1ccc2cc3n(c2c1)CCNCC3 (as salt: hydrochloride)	292 to 295 °C
Clc1c2n(c3ccccc13)CCNCC2 (as salt: hydrochloride)	> 250 °C
CC(C)(C)OC(=O)N1CCc2cc3ccccc3n2CC1 [Example 51, tert-butyl 1,2,4,5-tetrahydro-3H-[1,4]diazepino[1,7-a]indole-3-carboxylate]	129 to 132 °C
COc1ccc(NC(=O)C(=O)c2c3n(c4ccccc24)CCNCC3)cc1	177 to 180 °C
O=C(Nc1ccc(F)cc1F)C(=O)c1c2n(c3ccccc13)CCNCC2	184.5 to 185.5 °C
NC(=O)C(=O)c1c2n(c3ccccc13)CCNCC2	214 to 215 °C
CN1CCc2cc3ccccc3n2CC1	59 to 60 °C
O=C(Nc1ccccc1)C(=O)c1c2n(c3ccccc13)CCNCC2	157 to 160 °C
O=C(c1c2n(c3ccccc13)CCNCC2)C(F)(F)F	131 to 133 °C
